Data as given in paper PMC10254235, “Design, Synthesis, and Anti-Cervical Cancer and Reversal of Tumor Multidrug Resistance Activity of Novel Nitrogen-Containing Heterocyclic Chalcone Derivatives” (Molecules, 2023).
Read-outs that look alike come from different tables or passages of the source.

Tests used:
SiHa cells = experiment: MTT antiproliferative assay, SiHa cells; type: cell-based, human; details: Homo sapiens, 48 h, mean ± SD
Procedure: (§1) HeLa and SiHa cell lines were obtained from the Procell Life Science Technology Co., Ltd. (Wuhan, China); H8 cell line was obtained from the Shanghai HonSun Biological Technology Co., Ltd. (Shanghai, China); HUVEC cell line was obtained from the Saibaikang (Shanghai) Biotechnology Co., Ltd. (Shanghai, China); HeLa/DDP cell line was obtained from the Guangzhou Jenniobio Biotechnology Co., Ltd. (Guangzhou, China). HeLa, SiHa, H8, and HeLa/DDP cells were cultured in DMEM medium (HyClone). The VEGF of 50 ng/mL was used as the promoter of the VEGFR-2 receptor on HUVEC cell membrane surfaces, and their inhibitory effects on VEGFR-2 were determined. All the mediums were supplemented with 10% FBS (HyClone, GE Healthcare, Australia). Cells were maintained at subconfluency at 37 °C in humidified air containing 5% CO2. The cells were monitored daily and maintained at 80% cell density. All compounds tested were dissolved in DMSO and then diluted by the culture medium before the treatment of cultured cells. Identification reports are available for all types of cell lines involved in this study.
(§2) The cytotoxicity of the target compounds were measured in vitro using the MTT assay. Cells grown in the logarithmic phase were counted and seeded in 96-well cell culture plates (5 × 10^3 cells per well) for 24 h to allow attachment of cells to the wall of the plate. […] Next, 20 μL of 5 mg.mL^−1 MTT solution was added to each well and cultured for 4 h. The old solution was discarded, replaced with 150 μL DMSO solution per well, and shaken for 10 min. The OD value was measured under 490 nm, and the inhibition rate was calculated. The nonlinear regression fitting of the cell growth rate was carried out using SPSS 23.0 software, and the IC50 of the compound was calculated. […] There were 6 compound holes in each group, and the experimental results were presented as the average of 3 experiments. A complete medium containing only cells was used as the blank control, whereas a complete medium without cells was the negative control group. Cisplatin and sorafenib were utilized as the positive control group, and the target compound was the experimental intervention group.

HeLa cells [1] = experiment: Apoptosis analysis, Annexin V-FITC/PI flow cytometry; type: cell-based, human; details: 24 h
Procedure: After incubation, cells were harvested and incubated using […] of Annexin-V/FITC (BD, America) in binding buffer (10 mM HEPES, 140 mM NaCl, and 2.5 mM CaCl2 at pH 7.4) at room temperature for 15 min. The PI solution was then added to the medium for another 10 min incubation. Almost 10,000 events were collected for each sample and analyzed using flow cytometry (BD, LSRFortessa, New York, NY, USA). The procedure for the remaining Western blot was the same as in Section 3.3.3.

VEGFR-2 = molecular target: T1, VEGFR-2 (Homo sapiens, UniProt P35968); experiment: VEGFR-2 inhibition test (human p-VEGFR-2 ELISA in HeLa cells); type: cell-based; details: ± SD, read-out: 48h IC50 VEGFR-2 inhibitory effect
T1 construct: endogenous in cells; host or cells: HeLa cells
Procedure: Specimens, standards, and HRP-labeled detection antibodies were added sequentially to the pre-covered microtiter wells containing phosphorylated vascular endothelial growth factor receptor 2 (p-VEGFR2) antibodies, warmed, and washed thoroughly. The substrate TMB was added for color development. This substrate is converted to blue using peroxidase catalysis to a final yellow color due to the action of acid. […] Curve fitting was performed using SPSS 23.0 software to calculate IC50.

HeLa cells [2] = experiment: MTT antiproliferative assay, HeLa cells; type: cell-based, human; details: Homo sapiens, 48 h
Procedure: as §1, §2

p-VEGFR-2 = experiment: Western blot, VEGFR-2 phosphorylation in HeLa/DDP cells; type: cell-based, human; details: 4 and 6 μM, versus blank group, p < 0.05
Procedure: (§3) Next, the protein concentrations were determined using a BCA Protein Assay Kit (Solarbio, China). An equal amount of the proteins (12 μg) were separated using 8–12% sodium dodecyl sulfate–polyacrylamide gel electrophoresis (SDS-PAGE) and transferred to nitrocellulose membranes (Amersham Biosciences, Little Chalfont, Buckinghamshire, UK). Then, the membranes were blocked with 5% nonfat dried milk in TBS containing 1% Tween-20 for 2 h at room temperature and were incubated overnight with specific primary antibodies (CST, Boston, MA, USA) at 4 °C. After three washes in TBST, the membranes were incubated with the appropriate HRP-conjugated secondary antibodies at room temperature for 2 h. The blots were developed using enhanced chemiluminescence (Biosharp, Shanghai, China) and were detected using a PE 0723 imager (ProteinSimple, Silicon Valley, CA, USA). Each experiment was performed at least in triplicate and analyzed using Image J software (V1.8.0.112). […]
To reduce the adverse reactions caused by the fixation of drug resistance reversal agents, the concentration that reduces the proliferation rate of tumor cells by less than 10% was selected. Therefore, the inhibitory activity of compound 6f on HeLa/DDP cells was determined in the concentration ranges of 0.25, 0.5, and 1 μM combined with cisplatin. […]

p-VEGFR-2 (Y1175) = experiment: Western blot, p-VEGFR-2 in HeLa cells; type: cell-based, human; details: HeLa, 2, 4 and 6 μM, 24 h
Procedure: as §3

HeLa cells [3] = experiment: Transwell invasion assay (Matrigel); type: cell-based, human; details: 24 h, control 172
Procedure: The transwell ([…], Corning Incorporated, New York, NY, USA) was precoated using 50 μL Matrigel for 5 h at 37 °C to achieve solidification. […] After 24 h of incubation at 37 °C, the invasion cells were fixed using methanol and stained using 0.1% crystal violet for 30 min, respectively. Then, the chambers were washed using PBS and left to dry. Images were photographed using an inverted fluorescence microscope (Leica, Microsystems CMS GmbH, GER) and counted using Image J software (V1.8.0.112) for three independent fields randomly.

T1 sequence (P35968 20-1356): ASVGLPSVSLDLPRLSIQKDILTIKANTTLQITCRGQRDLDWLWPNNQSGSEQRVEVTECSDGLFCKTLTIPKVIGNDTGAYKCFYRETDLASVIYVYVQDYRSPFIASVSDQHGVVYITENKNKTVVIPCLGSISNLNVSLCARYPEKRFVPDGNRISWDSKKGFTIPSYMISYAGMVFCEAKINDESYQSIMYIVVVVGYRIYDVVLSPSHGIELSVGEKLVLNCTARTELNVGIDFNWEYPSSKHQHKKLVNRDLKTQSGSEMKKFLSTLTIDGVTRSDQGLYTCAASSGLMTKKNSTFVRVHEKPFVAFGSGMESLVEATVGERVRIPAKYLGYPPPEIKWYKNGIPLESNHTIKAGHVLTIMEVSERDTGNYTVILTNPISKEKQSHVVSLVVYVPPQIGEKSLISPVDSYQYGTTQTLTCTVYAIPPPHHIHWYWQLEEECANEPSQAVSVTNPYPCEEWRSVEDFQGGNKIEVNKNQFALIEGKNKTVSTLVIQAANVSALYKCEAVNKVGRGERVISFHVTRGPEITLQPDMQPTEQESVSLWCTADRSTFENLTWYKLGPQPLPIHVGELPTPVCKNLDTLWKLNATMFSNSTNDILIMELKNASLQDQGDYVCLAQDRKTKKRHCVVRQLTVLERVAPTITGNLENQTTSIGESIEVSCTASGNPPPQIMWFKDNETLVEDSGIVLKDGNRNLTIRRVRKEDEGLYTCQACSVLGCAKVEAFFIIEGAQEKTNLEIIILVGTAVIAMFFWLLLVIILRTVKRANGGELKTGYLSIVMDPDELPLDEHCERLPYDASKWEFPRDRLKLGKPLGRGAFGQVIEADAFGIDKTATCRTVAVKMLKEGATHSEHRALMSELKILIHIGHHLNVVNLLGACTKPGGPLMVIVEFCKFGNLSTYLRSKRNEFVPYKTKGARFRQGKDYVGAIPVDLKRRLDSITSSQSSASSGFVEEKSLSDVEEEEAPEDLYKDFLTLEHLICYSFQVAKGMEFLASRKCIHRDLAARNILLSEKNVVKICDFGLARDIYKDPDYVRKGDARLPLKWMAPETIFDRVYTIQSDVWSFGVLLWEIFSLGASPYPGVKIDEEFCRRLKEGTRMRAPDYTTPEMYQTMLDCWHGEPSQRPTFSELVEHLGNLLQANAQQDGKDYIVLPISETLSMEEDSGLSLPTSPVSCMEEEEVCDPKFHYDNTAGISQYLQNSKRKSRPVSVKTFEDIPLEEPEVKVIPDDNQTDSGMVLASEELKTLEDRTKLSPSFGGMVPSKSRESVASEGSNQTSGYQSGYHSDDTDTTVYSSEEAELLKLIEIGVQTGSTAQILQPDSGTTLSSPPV

`COc1cc(O)c(C(=O)/C=C/c2ccc(CN3CCC(C)CC3)cc2)cc1CN1CCC(O)CC1` [6f, (E)-1-(2-hydroxy-5-((4-hydroxypiperidin-1-yl)methyl)-4-methoxyphenyl)-3-(4-((4-methylpiperidin-1-yl)methyl)phenyl)prop-2-en-1-one] was tested, and the IC50 (SiHa cells) was 7.88 ± 0.52 µM, the proapoptotic rate (HeLa cells [1]; 2 μM) was 13.4% and the proapoptotic rate (HeLa cells [1]; 4 μM) was 20.7%. The proapoptotic rate (HeLa cells [1]; 6 μM) was 34.6%, the IC50 (VEGFR-2) was 0.75 ± 0.05 µM and the IC50 (HeLa cells [2]; MTT, mean ± SD, read-out: 48h IC50 HeLa) was 6.52 ± 0.42 µM. For the same molecule, the IC50 (HeLa cells [2]; single agent, read-out: 48h IC50 HeLa (Table 4)) was 6.52 ± 0.42 µM, the “phosphorylation of VEGFR-2 in HeLa/DDP cells (Western blot)” value (p-VEGFR-2) was “noteworthy ability to impede the phosphorylation of VEGFR-2” and the “p-VEGFR-2 (Y1175) in HeLa cells (Western blot)” value (p-VEGFR-2 (Y1175)) was “effective downregulation”. For the same molecule, the “number of invading cells” value (HeLa cells [3]; 2 μM) was 91, the “number of invading cells” value (HeLa cells [3]; 4 μM) was 50 and the “number of invading cells” value (HeLa cells [3]; 6 μM) was 35.
